Results as given in ChEMBL document CHEMBL5316313, “Discovery of Novel 3-Phenylpiperidine Derivatives Targeting the β-Catenin/B-Cell Lymphoma 9 Interaction as a Single Agent and in Combination with the Anti-PD-1 Antibody for the Treatment of Colorectal Cancer” (J Med Chem, 2023).
Active and inactive are the calls of the source. The calls are words filed in the database; no cut-off is given here.

Assays:
CT26 [1] = test: Induction of apoptosis in Wnt-dependent mouse CT26 cells assessed as necrotic cells at 20 uM incubated for 24 hrs by Annexin V-Alexa Fluor 647/PI staining based flow cytomtery (Rvb=1.04%); assay type: functional
CT26 [2] = test: Induction of apoptosis in Wnt-dependent mouse CT26 cells assessed as late apoptotic cells at 10 uM incubated for 24 hrs by Annexin V-Alexa Fluor 647/PI staining based flow cytomtery (Rvb=9.96%); assay type: functional
CT26 [3] = test: Antitumor activity against mouse CT26 cells xenografted in BALB/c mouse assessed as tumor growth inhibition at 30 mg/kg, ip QD and measured upto 9 days in presence of anti-PD-1 antibody cotreatment at 10 mg/kg,ip BIW; assay type: functional; settings: CT26, 216 h, time <= 9 day, read-out: TGI
[4] = Toxicity in BALB/c mouse xenografted with mouse CT26 cells assessed as pathological changes in spleen at 30 mg/kg, ip QD by hematoxylin and eosin staining based microscopic analysis; assay type: organism-based; settings: in vivo
[5] = Cmax in Sprague-Dawley rat at 21 mg/kg, ip and measured upto 24 hrs by LC-MS analysis; assay type: ADME, organism-based; set-up: dose 21 mg/kg, time < 24 hrs, route ip; settings: in vivo
CT26 [6] = test: Antitumor activity in mouse CT26 cells xenografted in BALB/c mouse assessed as increase in CD8+ T cell infiltration into tumor at 30 mg/kg, ip QD by flow cytometry; assay type: functional, organism-based
CT26 [7] = test: Antitumor activity in mouse CT26 cells xenografted in BALB/c mouse assessed as increase in granzyme B-positive CD8+ T cell infiltration into tumor at 30 mg/kg, ip QD by flow cytometry; assay type: functional, organism-based
CT26 [8] = test: Synergistic antitumor activity in mouse CT26 cells xenografted in BALB/c mouse assessed as increase in Cd8 mRNA expression level in tumor at 30 mg/kg, ip QD in presence of anti-PD-1 antibody cotreatment at 10 mg/kg,ip BIW by qRT-PCR analysis; assay type: functional, organism-based
CT26 [9] = settings: Mus musculus, BALB/c, dose 30.0 mg/kg, route ip
Description: In vivo inhibition of Wnt signaling pathway in mouse CT26 cells implanted in BALB/c mouse assessed as reduction in Lgr5 mRNA expression level in tumor at 30 mg/kg, ip QD by qRT-PCR analysis

[10] = biological target: T1, beta-catenin-B-cell lymphoma 9 protein complex (Homo sapiens, UniProt P35222); test: Inhibition of beta-catenin/BCL9 protein-protein interaction in Wnt-dependent human HCT-116 cells assessed as reduction in Axin2 expression level by qRT-PCR assay; assay type: cell-based
T1 sequence (P35222 whole entry): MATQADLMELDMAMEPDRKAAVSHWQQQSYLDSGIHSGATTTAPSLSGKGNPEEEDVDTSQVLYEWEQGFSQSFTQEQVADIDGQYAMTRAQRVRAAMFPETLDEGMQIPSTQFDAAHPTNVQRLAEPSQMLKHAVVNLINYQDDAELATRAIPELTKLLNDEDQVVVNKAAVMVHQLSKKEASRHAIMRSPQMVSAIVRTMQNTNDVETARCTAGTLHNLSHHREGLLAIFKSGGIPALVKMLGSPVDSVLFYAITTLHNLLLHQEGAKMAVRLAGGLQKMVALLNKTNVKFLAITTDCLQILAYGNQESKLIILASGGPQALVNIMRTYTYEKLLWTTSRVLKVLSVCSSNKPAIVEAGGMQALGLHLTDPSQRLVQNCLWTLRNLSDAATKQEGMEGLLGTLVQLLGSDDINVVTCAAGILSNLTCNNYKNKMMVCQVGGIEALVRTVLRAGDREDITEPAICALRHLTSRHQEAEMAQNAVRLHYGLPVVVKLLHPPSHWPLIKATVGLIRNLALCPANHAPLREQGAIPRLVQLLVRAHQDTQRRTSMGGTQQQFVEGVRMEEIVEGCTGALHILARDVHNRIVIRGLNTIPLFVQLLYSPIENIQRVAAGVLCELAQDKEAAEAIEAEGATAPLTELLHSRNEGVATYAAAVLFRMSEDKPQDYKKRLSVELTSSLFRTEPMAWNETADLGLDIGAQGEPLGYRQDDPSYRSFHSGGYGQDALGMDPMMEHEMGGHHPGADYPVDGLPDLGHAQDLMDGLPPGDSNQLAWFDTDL
T1 sequence (O00512 whole entry): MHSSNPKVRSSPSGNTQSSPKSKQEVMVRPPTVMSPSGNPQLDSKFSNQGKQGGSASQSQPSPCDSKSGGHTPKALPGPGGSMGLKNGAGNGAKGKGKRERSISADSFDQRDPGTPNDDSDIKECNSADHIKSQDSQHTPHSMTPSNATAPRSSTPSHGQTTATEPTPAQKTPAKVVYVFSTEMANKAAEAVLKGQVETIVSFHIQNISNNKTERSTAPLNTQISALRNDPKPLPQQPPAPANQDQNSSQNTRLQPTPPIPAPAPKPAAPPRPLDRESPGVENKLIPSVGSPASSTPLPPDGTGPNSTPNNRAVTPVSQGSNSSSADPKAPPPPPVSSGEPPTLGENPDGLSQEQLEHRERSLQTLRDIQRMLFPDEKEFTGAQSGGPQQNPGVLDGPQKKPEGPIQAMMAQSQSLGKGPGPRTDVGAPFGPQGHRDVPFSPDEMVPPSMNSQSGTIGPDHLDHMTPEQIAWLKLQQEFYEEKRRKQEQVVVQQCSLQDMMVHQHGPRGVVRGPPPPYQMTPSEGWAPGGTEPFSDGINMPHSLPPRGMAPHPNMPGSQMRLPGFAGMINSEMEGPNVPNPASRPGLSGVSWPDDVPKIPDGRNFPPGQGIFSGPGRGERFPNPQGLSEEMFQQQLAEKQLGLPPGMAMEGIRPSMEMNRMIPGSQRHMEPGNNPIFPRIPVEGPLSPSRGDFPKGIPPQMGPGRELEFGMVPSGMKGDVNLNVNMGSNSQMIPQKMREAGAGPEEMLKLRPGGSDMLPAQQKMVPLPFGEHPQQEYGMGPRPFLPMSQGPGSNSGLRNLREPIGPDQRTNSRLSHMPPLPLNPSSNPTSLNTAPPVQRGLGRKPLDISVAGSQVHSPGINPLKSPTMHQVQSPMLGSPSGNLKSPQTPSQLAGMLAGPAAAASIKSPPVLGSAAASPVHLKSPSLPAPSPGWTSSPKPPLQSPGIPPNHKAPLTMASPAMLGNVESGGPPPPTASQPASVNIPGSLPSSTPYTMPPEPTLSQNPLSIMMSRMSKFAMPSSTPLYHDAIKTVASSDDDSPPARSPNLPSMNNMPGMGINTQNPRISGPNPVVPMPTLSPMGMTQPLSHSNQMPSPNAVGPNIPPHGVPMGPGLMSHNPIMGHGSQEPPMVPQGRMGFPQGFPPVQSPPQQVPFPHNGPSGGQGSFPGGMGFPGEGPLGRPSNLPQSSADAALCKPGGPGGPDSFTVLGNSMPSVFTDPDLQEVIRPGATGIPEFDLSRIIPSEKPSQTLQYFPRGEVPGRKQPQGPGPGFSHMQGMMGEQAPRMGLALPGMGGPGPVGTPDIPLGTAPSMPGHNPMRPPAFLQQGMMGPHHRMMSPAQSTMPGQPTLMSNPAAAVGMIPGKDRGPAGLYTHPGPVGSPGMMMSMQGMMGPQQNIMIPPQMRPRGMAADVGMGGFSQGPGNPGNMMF

[11] = biological target: T1, beta-catenin-B-cell lymphoma 9 protein complex; test: Inhibition of beta-catenin/BCL9 protein-protein interaction in Wnt-independent human HEK293 cells assessed as reduction in Axin2 expression level by qRT-PCR assay; assay type: cell-based

Row | Cmax [5] | IC50 [10] | IC50 [11] | SMILES | Activity (CT26 [1]) | Activity (CT26 [2]) | inhibition in vivo at 30 mg/kg (CT26 [3]) | Activity [4] | Activity (CT26 [6]) | Activity (CT26 [7]) | Activity (CT26 [8]) | inhibition (CT26 [9])
1 | 6960 ng/mL | – | – | CC(C)c1ccc(-c2cccc(S(=O)(=O)N3CCCC(c4cccc(OC(C)(C)C(=O)NS(=O)(=O)c5ccc(C(F)(F)F)cc5)c4)C3)c2)cc1 (stereo unspecified) | 1.42% | 30.2% | 81.1% | Non-Toxic | Active | Active | Active | Active
2 | – | 2.69 µM | 38.3 µM | O=C1[C@H](Cc2ccc(O)cc2)N2C(=O)CCN(C(=O)NCc3ccccc3)[C@H]2CN1Cc1cccc2ccccc12 | – | – | – | – | – | – | – | –
